Data: PubChem BioAssay AID256 (DTP/NCI, 2004)
Toxic doses and inconclusive results are not listed. The calls were made as follows: active = survival T/C of 150% or more; inactive = T/C below 125% in these data.

Tested on: CD2F1 mice, L1210 leukemia ip, survival T/C
Test: NCI In Vivo Anticancer Drug Screen. Data for tumor model L1210 Leukemia (intraperitoneal) in CD2F1 (CDF1) mice
Conditions: higher = longer survival
Summary of the method: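 Compound-dosed mice with transplantable tumor versus matched vehicle controls; endpoint ratio T/C reported.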

[1] = endpoint: mean survival time, dose: 100.0 mg/kg/injection, schedule: Q01DX001 (ip), vehicle: saline with Tween-80
[2] = endpoint: mean survival time, dose: 200.0 mg/kg/injection, schedule: Q01DX001 (ip), vehicle: saline with Tween-80
[3] = endpoint: mean survival time, dose: 400.0 mg/kg/injection, schedule: Q01DX001 (ip), vehicle: saline with Tween-80
[4] = endpoint: mean survival time, dose: 100.0 mg/kg/injection, schedule: Q01DX009 (ip), vehicle: saline with Tween-80
[5] = endpoint: mean survival time, dose: 100.0 mg/kg/injection, schedule: Q04DX003 (ip), vehicle: saline with Tween-80
[6] = endpoint: mean survival time, dose: 200.0 mg/kg/injection, schedule: Q01DX009 (ip), vehicle: saline with Tween-80
[7] = endpoint: mean survival time, dose: 400.0 mg/kg/injection, schedule: Q04DX003 (ip), vehicle: saline with Tween-80
[8] = endpoint: mean survival time, dose: 200.0 mg/kg/injection, schedule: Q04DX003 (ip), vehicle: saline with Tween-80
[9] = endpoint: mean survival time, dose: 100.0 mg/kg/injection, schedule: Q04DX002 (ip), vehicle: saline with Tween-80
[10] = endpoint: mean survival time, dose: 200.0 mg/kg/injection, schedule: Q04DX002 (ip), vehicle: saline with Tween-80
[11] = endpoint: mean survival time, dose: 50.0 mg/kg/injection, schedule: Q04DX002 (ip), vehicle: saline with Tween-80

Measured: T/C

COC1OC(CO)C(O)C(O)C1O (configuration not stated) (tested in a mixture with another compound)
inactive: [1] 90 % of control | [2] 90 % of control | [3] 92 % of control

CC(C)COC(=O)c1ccc(NC(=O)Nc2ccccc2Cl)cc1
inactive: [4] 93 % of control | [5] 93 % of control | [6] 89 % of control | [7] 101 % of control

Cc1ccccc1N=C(c1ccccc1)C1C(=O)c2ccccc2C1=O
inactive: endpoint: median survival time, dose: 50.0 mg/kg/injection, schedule: Q01DX005 (ip), vehicle: DMSO 103 % of control | endpoint: median survival time, dose: 100.0 mg/kg/injection, schedule: Q01DX005 (ip), vehicle: DMSO 100 % of control | endpoint: median survival time, dose: 200.0 mg/kg/injection, schedule: Q01DX005 (ip), vehicle: DMSO 103 % of control | endpoint: median survival time, dose: 400.0 mg/kg/injection, schedule: Q01DX005 (ip), vehicle: DMSO 101 % of control | endpoint: median survival time, dose: 800.0 mg/kg/injection, schedule: Q01DX005 (ip), vehicle: DMSO 100 % of control

CCCCn1ccnc1C
inactive: endpoint: mean survival time, dose: 6.25 mg/kg/injection, schedule: Q01DX009 (ip), vehicle: saline 102 % of control | endpoint: mean survival time, dose: 6.25 mg/kg/injection, schedule: Q04DX003 (ip), vehicle: saline 94 % of control | endpoint: mean survival time, dose: 12.5 mg/kg/injection, schedule: Q01DX009 (ip), vehicle: saline 103 % of control | endpoint: mean survival time, dose: 12.5 mg/kg/injection, schedule: Q04DX003 (ip), vehicle: saline 94 % of control | endpoint: mean survival time, dose: 25.0 mg/kg/injection, schedule: Q01DX009 (ip), vehicle: saline 103 % of control | endpoint: mean survival time, dose: 25.0 mg/kg/injection, schedule: Q04DX003 (ip), vehicle: saline 94 % of control

Cc1nc(-c2ccccc2)nc2c1CCO2
inactive: [5] 102 % of control | [8] 100 % of control | [7] 105 % of control

CC(C)(CNC1CCCCC1)OC(=O)c1ccc(N)cc1
inactive: endpoint: mean survival time, dose: 5.0 mg/kg/injection, schedule: Q01DX001 (ip), vehicle: saline 102 % of control | endpoint: mean survival time, dose: 10.0 mg/kg/injection, schedule: Q01DX001 (ip), vehicle: saline 96 % of control | endpoint: mean survival time, dose: 20.0 mg/kg/injection, schedule: Q01DX001 (ip), vehicle: saline 98 % of control | endpoint: mean survival time, dose: 40.0 mg/kg/injection, schedule: Q01DX001 (ip), vehicle: saline 104 % of control

NC(=S)NNc1c(NNC(N)=S)c(=O)c1=O
inactive: endpoint: mean survival time, dose: 100.0 mg/kg/injection, schedule: Q01DX001 (ip), vehicle: saline 93 % of control | endpoint: mean survival time, dose: 200.0 mg/kg/injection, schedule: Q01DX001 (ip), vehicle: saline 98 % of control | endpoint: mean survival time, dose: 400.0 mg/kg/injection, schedule: Q01DX001 (ip), vehicle: saline 102 % of control

O=[N+]([O-])c1ccc(N/N=C2/CCSc3ccccc32)cc1
inactive: endpoint: mean survival time, dose: 100.0 mg/kg/injection, schedule: Q01DX009 (ip), vehicle: saline 102 % of control | endpoint: mean survival time, dose: 200.0 mg/kg/injection, schedule: Q01DX009 (ip), vehicle: saline 101 % of control | endpoint: mean survival time, dose: 400.0 mg/kg/injection, schedule: Q01DX009 (ip), vehicle: saline 95 % of control

O=C(Nc1cccc(Cl)c1)NC1CCC(CC2CCCCC2)CC1 (configuration not stated)
inactive: [5] 95 % of control | [8] 95 % of control | [7] 100 % of control

O=c1cc[nH]c(=S)[nH]1.[Pt]
inactive: endpoint: mean survival time, dose: 3.13 mg/kg/injection, schedule: Q04DX003 (ip), vehicle: distilled water + Tween-80 94 % of control | endpoint: mean survival time, dose: 6.25 mg/kg/injection, schedule: Q04DX003 (ip), vehicle: distilled water + Tween-80 97 % of control | endpoint: mean survival time, dose: 12.5 mg/kg/injection, schedule: Q04DX003 (ip), vehicle: distilled water + Tween-80 94 % of control | endpoint: mean survival time, dose: 25.0 mg/kg/injection, schedule: Q04DX003 (ip), vehicle: distilled water + Tween-80 97 % of control | endpoint: mean survival time, dose: 50.0 mg/kg/injection, schedule: Q04DX003 (ip), vehicle: distilled water + Tween-80 97 % of control | endpoint: mean survival time, dose: 100.0 mg/kg/injection, schedule: Q04DX003 (ip), vehicle: distilled water + Tween-80 103 % of control | endpoint: mean survival time, dose: 200.0 mg/kg/injection, schedule: Q04DX003 (ip), vehicle: distilled water + Tween-80 102 % of control

CC(=O)/C=C/Sc1n[nH]c(=O)[nH]c1=O
inactive: endpoint: mean survival time, dose: 12.5 mg/kg/injection, schedule: Q01DX005 (ip), vehicle: distilled water + Tween-80 106 % of control | endpoint: mean survival time, dose: 25.0 mg/kg/injection, schedule: Q01DX005 (ip), vehicle: distilled water + Tween-80 101 % of control | endpoint: mean survival time, dose: 50.0 mg/kg/injection, schedule: Q01DX005 (ip), vehicle: distilled water + Tween-80 107 % of control | endpoint: mean survival time, dose: 100.0 mg/kg/injection, schedule: Q01DX005 (ip), vehicle: distilled water + Tween-80 98 % of control

CC(=O)OC1CCC2(C)C(=CCC3C2CCC2(C)C3CC3OC4(CCC(C)CO4)C(C)C32)C1 (configuration not stated)
inactive: endpoint: mean survival time, dose: 100.0 mg/kg/injection, schedule: Q04DX003 (ip), vehicle: other 95 % of control | endpoint: mean survival time, dose: 200.0 mg/kg/injection, schedule: Q04DX003 (ip), vehicle: other 94 % of control | endpoint: mean survival time, dose: 400.0 mg/kg/injection, schedule: Q04DX003 (ip), vehicle: other 94 % of control

O=S(=O)(O)c1ccccc1N=Nc1c(S(=O)(=O)O)cc2cc(S(=O)(=O)O)c(N=Nc3ccccc3S(=O)(=O)O)c(O)c2c1O
inactive: [5] 97 % of control | [8] 100 % of control

CC(C)C(=O)OCCOc1ccccc1
inactive: [4] 100 % of control | [6] 100 % of control | endpoint: mean survival time, dose: 400.0 mg/kg/injection, schedule: Q01DX009 (ip), vehicle: saline with Tween-80 98 % of control

CC(=O)OCC1OC(n2ncnc2CI)C(OC(C)=O)C(OC(C)=O)C1OC(C)=O (configuration not stated)
inactive: endpoint: median survival time, dose: 12.5 mg/kg/injection, schedule: Q01DX005 (ip), vehicle: distilled water + Tween-80 105 % of control | endpoint: median survival time, dose: 25.0 mg/kg/injection, schedule: Q01DX005 (ip), vehicle: distilled water + Tween-80 105 % of control | endpoint: median survival time, dose: 50.0 mg/kg/injection, schedule: Q01DX005 (ip), vehicle: distilled water + Tween-80 96 % of control

CCOC(=O)N/N=C/c1ccccc1
inactive: [1] 103 % of control | [2] 108 % of control | [3] 110 % of control

Cn1c(=O)ccc2ccccc21
inactive: [9] 101 % of control | [10] 87 % of control

Cc1ccc(S)cc1
inactive: [1] 98 % of control | endpoint: mean survival time, dose: 100.0 mg/kg/injection, schedule: Q04DX003 (ip), vehicle: saline sonified 100 % of control | [2] 90 % of control | endpoint: mean survival time, dose: 200.0 mg/kg/injection, schedule: Q04DX003 (ip), vehicle: saline sonified 95 % of control | [3] 90 % of control | endpoint: mean survival time, dose: 400.0 mg/kg/injection, schedule: Q04DX003 (ip), vehicle: saline sonified 95 % of control

NC(N)=N/N=C/c1ccncc1
inactive: endpoint: mean survival time, dose: 100.0 mg/kg/injection, schedule: Q04DX002 (ip), vehicle: saline 92 % of control

O=C1C2C3CC4C5C3C1C5C1(OCCO1)C42 (configuration not stated)
inactive: endpoint: mean survival time, dose: 25.0 mg/kg/injection, schedule: Q04DX002 (ip), vehicle: saline with Tween-80 107 % of control | [11] 107 % of control | [9] 100 % of control | [10] 107 % of control

ClCCc1cnc[nH]1
inactive: endpoint: mean survival time, dose: 25.0 mg/kg/injection, schedule: Q01DX005 (ip), vehicle: water 104 % of control | endpoint: mean survival time, dose: 50.0 mg/kg/injection, schedule: Q01DX005 (ip), vehicle: water 101 % of control | endpoint: mean survival time, dose: 100.0 mg/kg/injection, schedule: Q01DX005 (ip), vehicle: water 105 % of control

C/C=C(/c1ccccc1)c1ccc(N(C)C)cc1
inactive: [5] 98 % of control | [8] 91 % of control | [7] 91 % of control

O=C(OC1(c2c(F)c(F)c(F)c(F)c2F)C2C=CC1CC2)c1ccc([N+](=O)[O-])cc1 (configuration not stated)
inactive: [11] 102 % of control | [9] 105 % of control | [10] 98 % of control | endpoint: mean survival time, dose: 400.0 mg/kg/injection, schedule: Q04DX002 (ip), vehicle: saline with Tween-80 90 % of control
